Experimental data from patent publication EP0897923A1, “BENZOQUINOLIZINE DERIVATIVES AND MEDICINAL COMPOSITIONS” (priority 1996, dated 1997).
Marks after values point to notes of the source that are not given here.

Legend:
Format in all cases: in vivo
SD rats [1] = test: Effect on an IBS model (2): wrap-restraint stress, weight of fecal pellets, oral administration; conditions: for Inhibition (%) vs. control: weight of fecal pellets in one hour, male SD rats; for defecation accelerated by stress: result in words, summary of Test Examples 2 and 3, oral dose levels 10 and 30 mg/kg
Protocol: Six-week-old male SD rats, non-fasted, were used in groups of 8 individuals. In accordance with the method of Williams et al. (Gastroenterology, 1988; 94:611-621), animals in the control group and treatment groups were loaded with a wrap-restraint stress while those in the normal group were not loaded and weight (g) of the fecal pellets in the subsequent one-hour period was determined. In the treatment groups, a predetermined dose of the corresponding test drug was administered orally 60 minutes before stress loading. As reference control drugs, N-methyl-N-[(2RS,11bSR)-1,3,4,6,7,11b-hexahydro-2H-benzo[a]quinolizin-2-yl]propanesulfonamide hydrochloride (hereinafter referred to as Compound A) and N-(2-methanesulfonamidoethyl)-N-[(2RS,11bSR)-1,3,4,6,7,11b-hexahydro-2H-benzo[a]quinolizin-2-yl]benzenesulfonamide hydrochloride (hereinafter referred to as compound B), both of which are described in Japanese Laid-open S62-67031 as having gastrointestinal peristalsis-modulating activity were used. The inhibition rate (%) was calculated by means of the following equation. Inhibition rate = [(C-D)/(C-N)] x 100 [formula] where C represents the weight of the fecal pellets in the control group, D represents the weight of the fecal pellets in the treatment group, and N represents the weight of the fecal pellets in the normal group. Statistical significance of the treatment group versus the control group was tested by Dunnett's multiple comparison.

SD rats [2] = test: Effect on an IBS model (3): water avoidance stress, number of fecal pellets, oral administration; conditions: number of fecal pellets in one hour, male SD rats
Protocol: Six-week-old male SD rats were used in groups of 8 individuals. In accordance with the method of Enck et al. (Gut, 1989; 30:455-459), animals in the control group and treatment groups were loaded with water avoidance stress, while those in the normal groups were not loaded and the number of fecal pellets during the subsequent one-hour period was determined. In the treatment groups, a predetermined dose of the corresponding test drug was administered orally 60 minutes before stress loading. As reference control drugs, Compound A and Compound B mentioned above were used. The inhibition rate (%) was calculated by means of the following equation. Inhibition rate (%) = [(NC-ND)/(NC-NN)] x 100 [formula] where NC represents the number of the fecal pellets in the control group, ND represents the number of the fecal pellets in the treatment group, and NN represents the number of the fecal pellets in the normal group. Statistical significance of the treatment group versus the control group was tested by Dunnett's multiple comparison.

ddY mice = test: Acute toxicity test; conditions: fasted male ddY mice, deaths during one week
Protocol: Six-week-old male ddY mice were used in groups of 5 individuals. The animals were fasted from the previous day (16-18 hours before the experiment) and a predetermined dose of the compound of the invention was administered orally. The number of deaths during the subsequent one-week period was investigated.

SD rats [3] = test: Effect on an IBS model (1): wrap-restraint stress, weight of fecal pellets, subcutaneous administration; conditions: 3 mg/kg subcutaneously 30 minutes before wrap-restraint stress, weight of fecal pellets in one hour, male SD rats
Protocol: Six-week-old male SD rats, non-fasted, were used in groups of 8 individuals. In accordance with the method of Williams et al. (Gastroenterology, 1988; 94:611-621), animals in the control group and treatment groups were loaded with a wrap-restraint stress while those in the normal group were not loaded and weight (g) of fecal pellets in the subsequent one-hour period was determined. In the treatment groups, a predetermined dose of the corresponding test drug was administered subcutaneously 30 minutes before stress loading. The inhibition rate (%) was calculated by means of the following equation. Inhibition rate = [(C-D)/(C-N)] x 100 [formula] where C represents the weight of the fecal pellets in the control group, D represents the weight of the fecal pellets in the treatment group, and N represents the weight of the fecal pellets in the normal group. Statistical significance of the treatment group versus the control group was tested by Dunnett's multiple comparison.

[4] = 10 mg/kg orally 60 minutes before wrap-restraint stress
[5] = 30 mg/kg orally 60 minutes before wrap-restraint stress
[6] = 30 mg/kg orally 60 minutes before water avoidance stress
[7] = 10 mg/kg orally 60 minutes before wrap-restraint stress, hydrochloride

SMILES: CCCS(=O)(=O)N(C)[C@@H]1CCN2CCc3ccccc3[C@@H]2C1.Cl (racemic) [Compound A, N-methyl-N-[(2RS,11bSR)-1,3,4,6,7,11b-hexahydro-2H-benzo[a]quinolizin-2-yl]propanesulfonamide hydrochloride, reference compound]
- Inhibition (%) vs. control (SD rats [1]; [4]): -1.2%
- Inhibition (%) vs. control (SD rats [1]; [5]): 1.4%
- defecation accelerated by stress (SD rats [1]): did not inhibit defecation accelerated by stress
- Inhibition (%) vs. control (SD rats [2]; [6]): -20.7%

SMILES: CS(=O)(=O)NCCN([C@@H]1CCN2CCc3ccccc3[C@@H]2C1)S(=O)(=O)c1ccccc1.Cl (racemic) [Compound B, N-(2-methanesulfonamidoethyl)-N-[(2RS,11bSR)-1,3,4,6,7,11b-hexahydro-2H-benzo[a]quinolizin-2-yl]benzenesulfonamide hydrochloride, reference compound]
- Inhibition (%) vs. control (SD rats [1]; [4]): -4.7%
- Inhibition (%) vs. control (SD rats [1]; [5]): -30.0%
- defecation accelerated by stress (SD rats [1]): did not inhibit defecation accelerated by stress
- Inhibition (%) vs. control (SD rats [2]; [6]): -58.3%

SMILES: COc1ccc2c(c1)CCN1CC[C@@H](N(C)S(C)(=O)=O)C[C@@H]21.Cl (racemic) [Compound No. 1, N-Methyl-N-[(2RS,11bSR)-9-methoxy-1,3,4,6,7,11b-hexahydro-2H-benzo[a]quinolizin-2-yl]methanesulfonamide hydrochloride]
- Dead/Total (ddY mice; 100 mg/kg orally): 0/5
- Inhibition (%) vs. control (SD rats [1]; [7]): 53.2* %
- Inhibition (%) vs. control (SD rats [1]; [5]): 96.6** %
- Inhibition (%) vs. control (SD rats [3]; hydrochloride): 97.7** %
- Inhibition (%) vs. control (SD rats [2]; [6]): 81.8* %

SMILES: COc1ccc(S(=O)(=O)N(C)[C@@H]2CCN3CCc4cc(OC)ccc4[C@@H]3C2)cc1.Cl (racemic) [Compound No. 6, N-Methyl-N-[(2RS,11bSR)-9-methoxy-1,3,4,6,7,11b-hexahydro-2H-benzo[a]quinolizin-2-yl]-4-methoxybenzenesulfonamide hydrochloride]
- Dead/Total (ddY mice; 100 mg/kg orally): 0/5
- Inhibition (%) vs. control (SD rats [3]): 86.2** %

SMILES: COc1ccc2c(c1)CCN1CC[C@@H](N(C)S(=O)(=O)c3ccccc3)C[C@@H]21.Cl (racemic) [Compound No. 7, N-methyl-N-[(2RS,11bSR)-9-methoxy-1,3,4,6,7,11b-hexahydro-2H-benzo[a]quinolizin-2-yl]benzenesulfonamide hydrochloride]
- Inhibition (%) vs. control (SD rats [3]): 76.6** %

SMILES: COc1ccc2c(c1)CCN1CC[C@@H](N(C)S(=O)(=O)c3ccc(F)cc3)C[C@@H]21.Cl (racemic) [Compound No. 13, N-methyl-N-[(2RS,11bSR)-9-methoxy-1,3,4,6,7,11b-hexahydro-2H-benzo[a]quinolizin-2-yl]-4-fluorobenzenesulfonamide hydrochloride]
- Inhibition (%) vs. control (SD rats [3]): 72.4** %

SMILES: COc1ccc2c(c1)CCN1CC[C@@H](N(C)S(=O)(=O)c3cc(OC)ccc3OC)C[C@@H]21.Cl (racemic) [Compound No. 14, N-methyl-N-[(2RS,11bSR)-9-methoxy-1,3,4,6,7,11b-hexahydro-2H-benzo[a]quinolizin-2-yl]-2,5-dimethoxybenzenesulfonamide hydrochloride]
- Inhibition (%) vs. control (SD rats [3]): 75.6** %

SMILES: COc1ccc2c(c1)CCN1CC[C@@H](N(C)S(=O)(=O)N(C)C)C[C@@H]21.Cl (racemic) [Compound No. 16, N,N-Dimethyl-N'-[(2RS-11bSR)-9-methoxy-1,3,4,6,7,11b-hexahydro-2H-benzo[a]quinolizin-2-yl]-N'-methylsulfamide hydrochloride]
- Dead/Total (ddY mice; 300 mg/kg orally): 0/5
- Inhibition (%) vs. control (SD rats [1]; [4]): 73.3** %
- Inhibition (%) vs. control (SD rats [1]; [5]): 91.7** %

SMILES: COc1ccc2c(c1)CCN1CC[C@@H](N(C)S(C)(=O)=O)C[C@@H]21.Cl [Compound No. 18, N-Methyl-N-[(2R,11bS)-9-methoxy-1,3,4,6,7,11b-hexahydro-2H-benzo[a]quinolizin-2-yl]methanesulfonamide hydrochloride]
- Dead/Total (ddY mice; 250 mg/kg orally): 0/5
- Inhibition (%) vs. control (SD rats [1]; [7]): 91.1** %
- Inhibition (%) vs. control (SD rats [3]; hydrochloride): 96.6** %
- Inhibition (%) vs. control (SD rats [2]; 3 mg/kg orally 60 minutes before water avoidance stress): 72.4* %
- Inhibition (%) vs. control (SD rats [2]; 10 mg/kg orally 60 minutes before water avoidance stress): 82.9** %

SMILES: CCS(=O)(=O)N(C)[C@@H]1CCN2CCc3cc(OC)ccc3[C@@H]2C1.Cl [Compound No. 20, N-Methyl-N-[(2R,11bS)-9-methoxy-1,3,4,6,7,11b-hexahydro-2H-benzo[a]quinolizin-2-yl]ethanesulfonamide hydrochloride]
- Inhibition (%) vs. control (SD rats [1]; [4]): 69.4** %
- Inhibition (%) vs. control (SD rats [1]; [5]): 88.9** %

SMILES: CCN([C@@H]1CCN2CCc3cc(OC)ccc3[C@@H]2C1)S(C)(=O)=O.Cl [Compound No. 21, N-Ethyl-N-[(2R,11bS)-9-methoxy-1,3,4,6,7,11b-hexahydro-2H-benzo[a]quinolizin-2-yl]methanesulfonamide hydrochloride]
- Dead/Total (ddY mice; 250 mg/kg orally): 0/5
- Inhibition (%) vs. control (SD rats [1]; [4]): 64.6** %
- Inhibition (%) vs. control (SD rats [1]; [5]): 92.6** %
